Molecular target: SHP1 (Homo sapiens, UniProt P29350)
Assay: SHP1 tyrosine phosphatase activity inhibition assay
Format: biochemical
Details: under the assay conditions
Excerpt: The invention further provides a method of identifying an inhibitor of a SHP1 tyrosine phosphatase activity, comprising the steps of: • 1) contacting a test compound with a SHP1 protein or an active fragment thereof; and • 2) determining the ability of the test compound to decrease the tyrosine phosphatase activity of SHP1.
A variety of assay methods can be used to determine the effect of the compound on the tyrosine phosphatase activity of SHP1. Some of the assay methods are disclosed in WO99/54450. For example, SHP1 phosphotase activity can be measured as a function of the ability of SHP1 to dephosphorylate a substrate, such as a phosphorylated JAK2. In particular, a phosphorylated peptide derived from JAK2. The dephosphorylation reaction can be monitored using a malachite green assay (Lanzetta et al., Anal Biochem. 1979, 100:95–7), which measures the release of inorganic phosphate from the substrate. Alternatively, SHP1 phosphotase activity can be measured in vivo by changes in cellular physiology affected by the SHP1 phosphotase activity, such as the inactivation of the EPOR signal transduction pathway.
Compounds of Formula I, II, and III were identified as inhibitors for SHP1 tyrosine phosphatase activity using methods of the invention.

Sequence of SHP1 (P29350 whole entry): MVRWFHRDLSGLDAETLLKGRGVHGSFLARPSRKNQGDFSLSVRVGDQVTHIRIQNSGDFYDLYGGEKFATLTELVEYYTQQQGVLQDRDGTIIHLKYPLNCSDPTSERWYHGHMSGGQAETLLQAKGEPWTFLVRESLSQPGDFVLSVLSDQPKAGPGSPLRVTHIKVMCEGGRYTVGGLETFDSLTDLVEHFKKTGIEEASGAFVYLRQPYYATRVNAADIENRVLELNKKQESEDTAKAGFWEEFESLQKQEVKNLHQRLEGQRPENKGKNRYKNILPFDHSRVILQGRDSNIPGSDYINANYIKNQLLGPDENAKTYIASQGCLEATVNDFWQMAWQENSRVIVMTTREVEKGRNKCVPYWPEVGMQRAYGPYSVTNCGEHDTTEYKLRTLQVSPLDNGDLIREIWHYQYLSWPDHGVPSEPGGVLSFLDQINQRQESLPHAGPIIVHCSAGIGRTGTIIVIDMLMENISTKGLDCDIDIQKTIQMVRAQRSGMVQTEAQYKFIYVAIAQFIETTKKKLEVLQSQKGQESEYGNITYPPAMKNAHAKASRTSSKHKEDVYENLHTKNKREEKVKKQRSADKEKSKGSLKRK

Row | IC50 | Compound
1 | 22 µM | O=C(O)/C=C/c1ccc(/C=C/C(=O)O)s1
2 | 25.7 µM | CC(=O)Nc1ccc(/C=C2/SC(=S)NC2=O)cc1
3 | 4.3 µM | O=C1CSC(=S)N1CNc1ccc(NCN2C(=O)CSC2=S)cc1

Source: patent US7129267B2, “Methods for SHP1 mediated neuroprotection” (Janssen Pharmaceutica N.V., priority 2002, dated 2006)
